In US20100184596A1, “METHOD FOR THE CONTROL OF WEEDS IN TURF” (SYNGENTA CROP PROTECTION, INC., priority 2007, published 2010):

Tests used:
Type in all cases: in vivo
[1] = system: St. Augustinegrass v. Delmar; test: Phytotoxicity via post emergence spray application (Table B2.8); conditions: 1 appl
Description: (§1) The phytotoxicity of the compound of formula I to turfgrass species was tested. The compound was applied via post emergence spray to a range of warm and cool season turfgrass species at various rates and spray treatment treatment regimes. Percentage phytotoxicity assessments were taken at various timepoints.

Zoysiagrass v. Empire = test: Phytotoxicity in combination with safeners, post emergence spray (Table B4.1); conditions: no safener, 100 g ai/ha
Description: (§2) The phytotoxicity to turfgrass of the compound of formula I in combination with various safeners was tested. The combinations were applied by post emergence spray application. Percentage phytotoxicity assessments were taken at various timepoints. The safeners tested in these trials were cloquintocet-mexyl, cyprosulfamide, a compound of formula 2.3, and isoxadifen-ethyl.

[2] = system: Perennial ryegrass/fine fescue mix; test: Phytotoxicity via post emergence spray application (Table B2.4)
Description: as §1

turfgrass weeds = test: Example B5, conclusion in words; conditions: post emergence spray
Description: (§3) The weed control efficacy of the compound of formula I was tested. The compound was applied via post emergence spray to a range of weeds, at various rates and spray treatment treatment regimes. Percentage weed control assessments were taken at various timepoints.

turfgrass = test: Example B2, conclusion in words; conditions: spray
Description: as §1

[3] = system: Taraxacum officinale (dandelion); test: Weed control via post emergence spray, in perennial ryegrass/fine fescue mix (Table B5.5)
Description: as §3

[4] = system: Digitaria ischaemum (smooth crabgrass); test: Weed control via post emergence spray, in bluegrass/fescue mix (Table B5.7)
Description: as §3

[5] = system: clover and dandelion in turfgrass varieties; test: Example B1, conclusion in words; conditions: in Kentucky bluegrass, tall fescue and perennial ryegrass at the tested application rates
Description: The selectivity of the compound of formula I in turf (removal of grassy and broadleaf weeds) has been tested in turfgrass varieties selected from Kentucky bluegrass, tall fescue and perennial ryegrass and in […] selected from clover (an aggressive perennial weed) and dandelion (a weed of perennial horticultural crops and gardens which may also be a problem in some annual crops, particularly where reduced tillage is practiced).
The trials were conducted in Champaign, Ill., U.S. (Table B1.1) and Hudson, N.Y., U.S. (Table B1.2) under field conditions. Turfgrasses were maintained at approximately a 2.5″ height, like a home lawn. Mixed turf and weed stands were present. The test compounds were applied with a CO2 pressurized backpack sprayer by spraying in the form of an aqueous suspension (prepared from a wettable powder) in a concentration of 210 to 280 g/ha. The plots were then mowed and irrigated as needed. After 22 and 28 days respectively, the test is visually evaluated (100%=total damage to plant; 0%=no damage to plant).

[6] = system: Bermudagrass v. Tifway 419; test: Phytotoxicity in combination with safeners, post emergence spray (Table B4.3); conditions: no safener, 100 g ai/ha
Description: as §2

COCCOCc1nc(C(F)(F)F)ccc1C(=O)C1=C(O)C2CCC(C2)C1=O (stereo not drawn) [Formula I, 4-Hydroxy-3-[2-(2-methoxyethoxymethyl)-6-trifluoromethylpyridine-3-carbonyl]-bicyclo[3.2.1]oct-3-en-2-one]
% phytotoxicity ([1]; 10 g ai/ha, 5 DAT): 5.00% | % phytotoxicity ([1]; 10 g ai/ha, 12 DAT): 5.00% | % phytotoxicity ([1]; 10 g ai/ha, 18 DAT): 0.00% | % phytotoxicity ([1]; 10 g ai/ha, 28 DAT): 0.00% | % phytotoxicity ([1]; 20 g ai/ha, 5 DAT): 6.67% | % phytotoxicity ([1]; 20 g ai/ha, 12 DAT): 6.67% | % phytotoxicity ([1]; 20 g ai/ha, 18 DAT): 2.00% | % phytotoxicity ([1]; 20 g ai/ha, 28 DAT): 0.00% | % phytotoxicity ([1]; 40 g ai/ha, 5 DAT): 11.67% | % phytotoxicity ([1]; 40 g ai/ha, 12 DAT): 18.33% | % phytotoxicity ([1]; 40 g ai/ha, 18 DAT): 4.00% | % phytotoxicity ([1]; 40 g ai/ha, 28 DAT): 0.00% | % phytotoxicity ([1]; 80 g ai/ha, 5 DAT): 16.67% | % phytotoxicity ([1]; 80 g ai/ha, 12 DAT): 30.00% | % phytotoxicity ([1]; 80 g ai/ha, 18 DAT): 5.00% | % phytotoxicity ([1]; 80 g ai/ha, 28 DAT): 0.67% | % phytotoxicity ([1]; 160 g ai/ha, 5 DAT): 23.33% | % phytotoxicity ([1]; 160 g ai/ha, 12 DAT): 46.67% | % phytotoxicity ([1]; 160 g ai/ha, 18 DAT): 8.33% | % phytotoxicity ([1]; 160 g ai/ha, 28 DAT): 3.00% | % phytotoxicity (Zoysiagrass v. Empire; 6 DAT): 11.70% | % phytotoxicity (Zoysiagrass v. Empire; 12 DAT): 63.30% | % phytotoxicity (Zoysiagrass v. Empire; 19 DAT): 68.30% | % phytotoxicity (Zoysiagrass v. Empire; 27 DAT): 51.70% | % phytotoxicity (Zoysiagrass v. Empire; 35 DAT): 40.00% | % phytotoxicity ([2]; 1 appl, 140 g ai/ha, 6 DAT): 4.00% | % phytotoxicity ([2]; 1 appl, 140 g ai/ha, 14 DAT): 18.75% | % phytotoxicity ([2]; 1 appl, 140 g ai/ha, 21 DAT): 6.75% | % phytotoxicity ([2]; 1 appl, 140 g ai/ha, 28 DAT): 2.50% | % phytotoxicity ([2]; 1 appl, 140 g ai/ha, 34 DAT): 0.50% | % phytotoxicity ([2]; 1 appl, 140 g ai/ha, 39 DAT): 0.00% | % phytotoxicity ([2]; 1 appl, 140 g ai/ha, 49 DAT): 3.75% | % phytotoxicity ([2]; 1 appl, 280 g ai/ha, 6 DAT): 4.50% | % phytotoxicity ([2]; 1 appl, 280 g ai/ha, 14 DAT): 25.00% | % phytotoxicity ([2]; 1 appl, 280 g ai/ha, 21 DAT): 6.25% | % phytotoxicity ([2]; 1 appl, 280 g ai/ha, 28 DAT): 1.75% | % phytotoxicity ([2]; 1 appl, 280 g ai/ha, 34 DAT): 1.25% | % phytotoxicity ([2]; 1 appl, 280 g ai/ha, 39 DAT): 0.00% | % phytotoxicity ([2]; 1 appl, 280 g ai/ha, 49 DAT): 0.00% | % phytotoxicity ([2]; 2 appl, 140 g ai/ha, 6 DAT): 3.00% | % phytotoxicity ([2]; 2 appl, 140 g ai/ha, 14 DAT): 20.00% | % phytotoxicity ([2]; 2 appl, 140 g ai/ha, 21 DAT): 6.75% | % phytotoxicity ([2]; 2 appl, 140 g ai/ha, 28 DAT): 2.75% | % phytotoxicity ([2]; 2 appl, 140 g ai/ha, 34 DAT): 10.50% | % phytotoxicity ([2]; 2 appl, 140 g ai/ha, 39 DAT): 8.75% | % phytotoxicity ([2]; 2 appl, 140 g ai/ha, 49 DAT): 4.25% | % phytotoxicity ([2]; 2 appl, 280 g ai/ha, 6 DAT): 3.50% | % phytotoxicity ([2]; 2 appl, 280 g ai/ha, 14 DAT): 28.75% | % phytotoxicity ([2]; 2 appl, 280 g ai/ha, 21 DAT): 11.00% | % phytotoxicity ([2]; 2 appl, 280 g ai/ha, 28 DAT): 17.50% | % phytotoxicity ([2]; 2 appl, 280 g ai/ha, 34 DAT): 22.50% | % phytotoxicity ([2]; 2 appl, 280 g ai/ha, 39 DAT): 23.75% | % phytotoxicity ([2]; 2 appl, 280 g ai/ha, 49 DAT): 10.00% | weed control, in words (turfgrass weeds): effective at controlling a variety of turfgrass weeds, even when applied at low rates | phytotoxicity to turfgrass, in words (turfgrass; applied at low rates): levels of phytotoxicity to turfgrass are acceptable | phytotoxicity by turfgrass type, in words (turfgrass; cool season versus warm season species): lower on cool season turfgrass species | % control ([3]; 1 appl, 140 g ai/ha, 14 DAT): 32.50% | % control ([3]; 1 appl, 140 g ai/ha, 21 DAT): 87.50% | % control ([3]; 1 appl, 280 g ai/ha, 14 DAT): 37.50% | % control ([3]; 1 appl, 280 g ai/ha, 21 DAT): 90.00% | % control ([3]; 2 appl, 140 g ai/ha, 14 DAT): 47.50% | % control ([3]; 2 appl, 140 g ai/ha, 21 DAT): 87.50% | % control ([3]; 2 appl, 280 g ai/ha, 14 DAT): 41.25% | % control ([3]; 2 appl, 280 g ai/ha, 21 DAT): 90.00% | % control ([4]; 10 g ai/ha, 7 DAT): 0.00% | % control ([4]; 10 g ai/ha, 14 DAT): 0.00% | % control ([4]; 10 g ai/ha, 22 DAT): 0.00% | % control ([4]; 10 g ai/ha, 29 DAT): 0.00% | % control ([4]; 10 g ai/ha, 46 DAT): 1.25% | % control ([4]; 20 g ai/ha, 7 DAT): 0.00% | % control ([4]; 20 g ai/ha, 14 DAT): 2.50% | % control ([4]; 20 g ai/ha, 22 DAT): 5.00% | % control ([4]; 20 g ai/ha, 29 DAT): 3.75% | % control ([4]; 20 g ai/ha, 46 DAT): 7.50% | % control ([4]; 40 g ai/ha, 7 DAT): 0.00% | % control ([4]; 40 g ai/ha, 14 DAT): 0.00% | % control ([4]; 40 g ai/ha, 22 DAT): 2.50% | % control ([4]; 40 g ai/ha, 29 DAT): 8.75% | % control ([4]; 40 g ai/ha, 46 DAT): 30.00% | % control ([4]; 80 g ai/ha, 7 DAT): 0.00% | % control ([4]; 80 g ai/ha, 14 DAT): 0.00% | % control ([4]; 80 g ai/ha, 22 DAT): 5.00% | % control ([4]; 80 g ai/ha, 29 DAT): 17.50% | % control ([4]; 80 g ai/ha, 46 DAT): 51.25% | % control ([4]; 160 g ai/ha, 7 DAT): 0.00% | % control ([4]; 160 g ai/ha, 14 DAT): 6.25% | % control ([4]; 160 g ai/ha, 22 DAT): 8.75% | % control ([4]; 160 g ai/ha, 29 DAT): 20.00% | % control ([4]; 160 g ai/ha, 46 DAT): 70.00% | selective weed control in turfgrass, in words [5]: suitable to combat undesired broadleaf weeds like clover and dandelion in turfgrass varieties | % phytotoxicity ([6]; 7 DAT): 56.70% | % phytotoxicity ([6]; 11 DAT): 38.30% | % phytotoxicity ([6]; 18 DAT): 9.30%
